Activity calls are given as the source filed them. The calls are words filed in the database; no cut-off is given here.
Assays:
[1] = Inhibition of recombinant wildtype N-terminus SYYHHHHHH-tagged human fructose 1,6-bisphosphatase extracted from Escherichia coli BL21 (DE3) cells using fructose1,6-bisphosphate as substrate assessed as NADP+ reduction to NADPH in presence of NADP+, PGI and G6PDH by spectrophotometric analysis
[2] = molecular target: Fructose-1,6-bisphosphatase 1 (Homo sapiens, UniProt P09467, C180S); assay: Inhibition of N-terminus SYYHHHHHH-tagged human fructose 1,6-bisphosphatase C179S mutant extracted from Escherichia coli BL21 (DE3) cells using fructose1,6-bisphosphate as substrate assessed as NADP+ reduction to NADPH in presence of NADP+, PGI and G6PDH by spectrophotometric analysis
Chain of Fructose-1,6-bisphosphatase 1 (Homo sapiens, UniProt P09467, C180S) (P09467 2-338 C180S limits assumed): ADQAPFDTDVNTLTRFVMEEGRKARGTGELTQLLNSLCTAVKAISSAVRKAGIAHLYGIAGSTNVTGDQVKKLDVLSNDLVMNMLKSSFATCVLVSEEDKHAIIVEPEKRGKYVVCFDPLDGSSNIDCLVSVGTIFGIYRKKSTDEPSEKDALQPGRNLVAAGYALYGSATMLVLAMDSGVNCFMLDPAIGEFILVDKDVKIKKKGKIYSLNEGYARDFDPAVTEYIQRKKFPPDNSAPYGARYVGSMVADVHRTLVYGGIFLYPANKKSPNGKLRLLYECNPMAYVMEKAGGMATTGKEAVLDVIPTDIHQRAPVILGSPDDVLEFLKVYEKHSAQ

Homo sapiens [3] = organism: Homo sapiens; assay: (§1) Selectivity ratio of IC50 for inhibition of N-terminus SYYHHHHHH-tagged human fructose 1,6-bisphosphatase C128S mutant extracted from Escherichia coli BL21 (DE3) cells to IC50 for inhibition of wildtype N-terminus SYYHHHHHH-tagged human fructose 1,6-bisphosphatase extracted from Escherichia coli BL21 (DE3) cells
[4] = molecular target: Fructose-1,6-bisphosphatase 1 (Homo sapiens, UniProt P09467, C129S); assay: Inhibition of N-terminus SYYHHHHHH-tagged human fructose 1,6-bisphosphatase C128S mutant extracted from Escherichia coli BL21 (DE3) cells using fructose1,6-bisphosphate as substrate assessed as NADP+ reduction to NADPH in presence of NADP+, PGI and G6PDH by spectrophotometric analysis
Chain of Fructose-1,6-bisphosphatase 1 (Homo sapiens, UniProt P09467, C129S) (P09467 2-338 C129S limits assumed): as the sequence (P09467 2-338 C180S limits assumed) above, with C128S, S179C counted along it

Homo sapiens [5] = organism: Homo sapiens; assay: as §1, with “C179S” for “C128S”
Mus musculus = assay: Antidiabetic activity in db/db mouse model assessed as reduction in blood glucose level at 250 mg/kg, ip preadministered with compound for 8 hrs followed by free feeding and measured after 16 hrs by glucometer; type: functional, organism-based; settings: time 24.0 hrs

Structure (SMILES)	IC50 [1]	also measured
C#Cc1ccc(NC(=O)NS(=O)(=O)c2ccc(CCNC(=O)CBr)cc2)cc1	9.77 µM	
O=C(Nc1cccc(Br)c1)NS(=O)(=O)c1ccccc1	13.6 µM	
CC(Cl)C(=O)NCCc1ccc(S(=O)(=O)NC(=O)Nc2cccc(Br)c2)cc1 (stereo not given)	170 µM	
CC(C)(C)c1ccc(NC(=O)NS(=O)(=O)c2ccc(CCNC(=O)CBr)cc2)cc1	8.04 µM	
O=C(CBr)NCCc1ccc(S(=O)(=O)NC(=O)Nc2ccc3c(c2)OCCO3)cc1	5.38 µM	
O=C(Nc1cccc(Br)c1)NS(=O)(=O)c1ccc(NC(=O)c2ccc(F)cc2)cc1	81.8 µM	
N#Cc1ccc(C(=O)Nc2ccc(S(=O)(=O)NC(=O)Nc3cccc(Br)c3)cc2)cc1	14.8 µM	
C#CCNC(=O)c1ccc(S(=O)(=O)NC(=O)Nc2cccc(Br)c2)cc1	39.8 µM	
CN(C)C(=N)NC(=N)N		Activity (Mus musculus): inactive
C/C=C/C(=O)NCCc1ccc(S(=O)(=O)NC(=O)Nc2cccc(Br)c2)cc1	> 500 µM	
C#Cc1ccc(NC(=O)c2ccc(S(=O)(=O)NC(=O)Nc3cccc(Br)c3)cc2)cc1	> 500 µM	

More lines, main results first:

IC50 [1]	Structure (SMILES)	also measured
2.75 µM	CCc1ccc(NC(=O)NS(=O)(=O)c2ccc(CCNC(=O)CBr)cc2)cc1	
3.05 µM	O=C(CBr)NCCc1ccc(S(=O)(=O)NC(=O)Nc2ccc(I)cc2)cc1	
2.94 µM	O=C(CBr)NCCc1ccc(S(=O)(=O)NC(=O)Nc2ccc3scnc3c2)cc1	
3.55 µM	O=C(Nc1cccc(Br)c1)NS(=O)(=O)c1ccc(NC(=O)c2ccc(Cl)nc2)cc1	IC50 [2]: 7.83 µM; Ratio IC50 (Homo sapiens [3]): 20; IC50 [4]: 71.8 µM; Ratio IC50 (Homo sapiens [5]): 2.2
3.42 µM	N#Cc1ccc(NC(=O)NS(=O)(=O)c2ccc(CCNC(=O)CBr)cc2)cc1	

Source: ChEMBL document CHEMBL6127127, “Structure-Guided Design of Affinity/Covalent-Bond Dual-Driven Inhibitors Targeting the AMP Site of FBPase” (J Med Chem, 2024)
